pKi: −log10 of the molar value.
Key:
[1] = molecular target: Human α2δ−1 subunit of Cav2.2 calcium channel (Homo sapiens, UniProt P54289); assay: Human α2δ−1 subunit of Cav2.2 calcium channel assay; settings: expressed as Ki; [3H]-Gabapentin, human α2δ−1 enriched membranes; read-out: Binding α2δ-1
Description: Human α2δ−1 Subunit of Cav2.2 Calcium Channel Assay Human α2δ−1 enriched membranes (2.5 μg) were incubated with 15 nM of radiolabeled [3H]-Gabapentin in assay buffer containing Hepes-KOH 10 mM, pH 7.4. NSB (non specific binding) was measured by adding 10 μM pregabalin. The binding of the test compound was measured at five different concentrations. After 60 min incubation at 27° C., binding reaction was terminated by filtering through Multiscreen GF/C (Millipore) presoaked in 0.5% polyethyleneimine in Vacuum Manifold Station, followed by 3 washes with ice-cold filtration buffer containing 50 mM Tris-HCl, pH 7.4.
Filter plates were dried at 60° C. for 1 hour and 30 μL of scintillation cocktail were added to each well before radioactivity reading. Readings were performed in a Trilux 1450 Microbeta radioactive counter (Perkin Elmer).

[2] = molecular target: Human norepinephrine transporter (NET) (Homo sapiens, UniProt P23975); assay: Binding assay to human norepinephrine transporter (NET); settings: expressed as Ki; [3H]-Nisoxetin, human NET enriched membranes
Sequence of Human norepinephrine transporter (NET) (P23975 whole entry): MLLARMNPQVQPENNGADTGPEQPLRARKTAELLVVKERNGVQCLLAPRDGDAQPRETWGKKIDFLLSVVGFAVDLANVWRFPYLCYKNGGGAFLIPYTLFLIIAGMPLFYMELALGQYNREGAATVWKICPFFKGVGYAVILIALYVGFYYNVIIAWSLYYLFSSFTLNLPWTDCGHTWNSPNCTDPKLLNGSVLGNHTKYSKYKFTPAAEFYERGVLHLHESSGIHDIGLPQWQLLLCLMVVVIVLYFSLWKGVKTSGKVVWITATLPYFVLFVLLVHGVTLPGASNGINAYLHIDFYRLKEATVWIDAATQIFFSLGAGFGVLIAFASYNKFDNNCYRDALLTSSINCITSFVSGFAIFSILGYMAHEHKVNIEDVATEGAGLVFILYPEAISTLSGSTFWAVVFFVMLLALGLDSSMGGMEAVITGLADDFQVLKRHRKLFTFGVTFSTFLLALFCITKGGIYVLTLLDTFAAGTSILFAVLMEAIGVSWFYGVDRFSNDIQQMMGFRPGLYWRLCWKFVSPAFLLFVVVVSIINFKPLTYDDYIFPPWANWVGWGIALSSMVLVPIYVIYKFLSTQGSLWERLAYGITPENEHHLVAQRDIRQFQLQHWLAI
Description: Binding Assay to Human Norepinephrine Transporter (NET).
Human norepinephrine transporter (NET) enriched membranes (5 μg) were incubated with 5 nM of radiolabeled [3H]-Nisoxetin in assay buffer containing 50 mM Tris-HCl, 120 mM NaCl, 5 mM KCl, pH 7.4.
NSB (non specific binding) was measured by adding 10 μM of desipramine. The binding of the test compound was measured at five different concentrations. After 60 min incubation at 4° C., binding reaction was terminated by filtering through Multiscreen GF/C (Millipore) presoaked in 0.5% polyethyleneimine in Vacuum Manifold Station, followed by 3 washes with ice-cold filtration buffer containing 50 mM Tris-HCl, 0.9% NaCl, pH 7.4.
Filter plates were dried at 60° C. for 1 hour and 30 μL of scintillation cocktail were added to each well before radioactivity reading.
Readings were performed in a Trilux 1450 Microbeta radioactive counter (Perkin Elmer).

Sequence of Human α2δ−1 subunit of Cav2.2 calcium channel (P54289 25-1103): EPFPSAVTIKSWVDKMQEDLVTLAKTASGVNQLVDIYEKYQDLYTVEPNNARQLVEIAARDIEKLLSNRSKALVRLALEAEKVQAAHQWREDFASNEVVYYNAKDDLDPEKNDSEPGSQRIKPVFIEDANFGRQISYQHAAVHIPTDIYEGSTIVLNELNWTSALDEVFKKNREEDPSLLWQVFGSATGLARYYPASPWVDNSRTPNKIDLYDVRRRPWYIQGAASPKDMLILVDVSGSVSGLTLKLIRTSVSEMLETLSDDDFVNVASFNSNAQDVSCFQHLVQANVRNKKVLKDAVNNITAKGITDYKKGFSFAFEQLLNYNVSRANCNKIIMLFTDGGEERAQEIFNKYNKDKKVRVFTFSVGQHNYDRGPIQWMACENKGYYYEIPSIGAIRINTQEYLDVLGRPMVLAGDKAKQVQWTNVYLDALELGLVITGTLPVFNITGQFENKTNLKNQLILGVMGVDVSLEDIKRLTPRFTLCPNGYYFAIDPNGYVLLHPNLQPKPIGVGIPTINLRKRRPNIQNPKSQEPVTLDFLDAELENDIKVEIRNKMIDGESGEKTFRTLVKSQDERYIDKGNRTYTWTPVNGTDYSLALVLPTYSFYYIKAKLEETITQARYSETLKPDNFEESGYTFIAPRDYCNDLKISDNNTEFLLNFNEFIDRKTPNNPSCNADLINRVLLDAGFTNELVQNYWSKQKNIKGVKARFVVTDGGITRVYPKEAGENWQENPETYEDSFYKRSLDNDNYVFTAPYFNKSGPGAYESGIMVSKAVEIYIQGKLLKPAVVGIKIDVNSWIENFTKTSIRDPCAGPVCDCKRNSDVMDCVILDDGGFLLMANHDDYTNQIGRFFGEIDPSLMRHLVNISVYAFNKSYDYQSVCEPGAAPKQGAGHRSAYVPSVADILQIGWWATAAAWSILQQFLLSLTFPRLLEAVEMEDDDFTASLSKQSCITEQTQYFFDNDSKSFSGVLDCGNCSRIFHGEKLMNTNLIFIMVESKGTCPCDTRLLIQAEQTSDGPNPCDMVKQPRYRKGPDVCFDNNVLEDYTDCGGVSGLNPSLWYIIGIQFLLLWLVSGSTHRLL

CCOc1ccc(-n2nc3c(N4CC[C@H](NCc5ccccc5)C4)nnc(C)c3c2C)c(F)c1 [Example 1, (S)-N-Benzyl-1-(2-(4-ethoxy-2-fluorophenyl)-3,4-dimethyl-2H-pyrazolo[3,4-d]pyridazin-7-yl)pyrrolidin-3-amine] was tested, and the pKi [1] was over 6.30 and the pKi [2] was 6.30 to 7.00.

Work on CCOc1ccc(-n2nc3c(N4CC[C@H](NCCc5ccccc5)C4)nnc(C)c3c2C)c(F)c1 [Example 2, (S)-1-(2-(4-ethoxy-2-fluorophenyl)-3,4-dimethyl-2H-pyrazolo[3,4-d]pyridazin-7-yl)-N-phenethylpyrrolidin-3-amine] yielded a pKi [1] of over 6.30 and a pKi [2] of 6.00 to 6.30.

Work on CCOc1ccc(-n2nc3c(N4CC[C@H](NCc5cccc(O)c5)C4)nnc(C)c3c2C)c(F)c1 [Example 3, (S)-3-(((1-(2-(4-ethoxy-2-fluorophenyl)-3,4-dimethyl-2H-pyrazolo[3,4-d]pyridazin-7-yl)pyrrolidin-3-yl)amino)methyl)phenol] yielded a pKi [1] of over 6.30 and a pKi [2] of 6.30 to 7.00.

For CCOc1ccc(-n2nc3c(N4CC[C@H](NCc5ccccn5)C4)nnc(C)c3c2C)c(F)c1 [Example 4, (S)-1-(2-(4-ethoxy-2-fluorophenyl)-3,4-dimethyl-2H-pyrazolo[3,4-d]pyridazin-7-yl)-N-(pyridin-2-ylmethyl)pyrrolidin-3-amine], the pKi [1] was over 6.30 and the pKi [2] was at most 6.00.

CCOc1ccc(-n2nc3c(N4CC[C@H](NCCc5ccc(F)cc5)C4)nnc(C)c3c2C)c(F)c1 [Example 5, (S)-1-(2-(4-ethoxy-2-fluorophenyl)-3,4-dimethyl-2H-pyrazolo[3,4-d]pyridazin-7-yl)-N-(4-fluorophenethyl)pyrrolidin-3-amine] gave a pKi [1] of over 6.30 and a pKi [2] of at most 6.00.

For CCOc1ccc(-n2nc3c(N4CC[C@H](NCc5cccc(OC)c5)C4)nnc(C)c3c2C)c(F)c1 [Example 6, (S)-1-(2-(4-ethoxy-2-fluorophenyl)-3,4-dimethyl-2H-pyrazolo[3,4-d]pyridazin-7-yl)-N-(3-methoxybenzyl)pyrrolidin-3-amine], the pKi [1] was over 6.30 and the pKi [2] was 6.00 to 6.30.

Work on CCOc1ccc(-n2nc3c(N4CC[C@H](NCc5ccc(F)c(F)c5)C4)nnc(C)c3c2C)c(F)c1 [Example 7, (S)-N-(3,4-difluorobenzyl)-1-(2-(4-ethoxy-2-fluorophenyl)-3,4-dimethyl-2H-pyrazolo[3,4-d]pyridazin-7-yl)pyrrolidin-3-amine] yielded a pKi [1] of over 6.30 and a pKi [2] of over 7.00.

CCOc1ccc(-n2nc3c(N4CC[C@@H](NCc5cccc(O)c5)C4)nnc(C)c3c2C)c(F)c1 [Example 8, (R)-3-(((1-(2-(4-ethoxy-2-fluorophenyl)-3,4-dimethyl-2H-pyrazolo[3,4-d]pyridazin-7-yl)pyrrolidin-3-yl)amino)methyl)phenol] gave a pKi [1] of over 6.30 and a pKi [2] of 6.30 to 7.00.

CCOc1ccc(-n2nc3c(N4CC[C@H](NCc5ccccc5O)C4)nnc(C)c3c2C)c(F)c1 [Example 9, (S)-2-(((1-(2-(4-ethoxy-2-fluorophenyl)-3,4-dimethyl-2H-pyrazolo[3,4-d]pyridazin-7-yl)pyrrolidin-3-yl)amino)methyl)phenol] gave a pKi [1] of over 6.30 and a pKi [2] of 6.30 to 7.00.

In the case of CCOc1ccc(-n2nc3c(N4CC[C@@H](NCc5ccccc5)C4)nnc(C)c3c2C)c(F)c1 [Example 10, (R)-N-benzyl-1-(2-(4-ethoxy-2-fluorophenyl)-3,4-dimethyl-2H-pyrazolo[3,4-d]pyridazin-7-yl)pyrrolidin-3-amine], the pKi [1] was over 6.30 and the pKi [2] was 6.30 to 7.00.

In the case of CCOc1ccc(-n2nc3c(N4CC[C@H](NCc5cccnc5)C4)nnc(C)c3c2C)c(F)c1 [Example 11, (S)-1-(2-(4-ethoxy-2-fluorophenyl)-3,4-dimethyl-2H-pyrazolo[3,4-d]pyridazin-7-yl)-N-(pyridin-3-ylmethyl)pyrrolidin-3-amine], the pKi [1] was over 6.30 and the pKi [2] was 6.00 to 6.30.

Work on CCOc1ccc(-n2nc3c(N4CC[C@H](NCc5ccncc5)C4)nnc(C)c3c2C)c(F)c1 [Example 12, (S)-1-(2-(4-ethoxy-2-fluorophenyl)-3,4-dimethyl-2H-pyrazolo[3,4-d]pyridazin-7-yl)-N-(pyridin-4-ylmethyl)pyrrolidin-3-amine] yielded a pKi [1] of over 6.30 and a pKi [2] of at most 6.00.

CCOc1ccc(-n2nc3c(N4CC[C@H](NCc5ncccc5F)C4)nnc(C)c3c2C)c(F)c1 [Example 13, (S)-1-(2-(4-ethoxy-2-fluorophenyl)-3,4-dimethyl-2H-pyrazolo[3,4-d]pyridazin-7-yl)-N-((3-fluoropyridin-2-yl)methyl)pyrrolidin-3-amine] gave a pKi [1] of over 6.30 and a pKi [2] of 6.00 to 6.30.

Work on CCOc1ccc(-n2nc3c(N4CC[C@H](NCc5cncc(F)c5)C4)nnc(C)c3c2C)c(F)c1 [Example 14, (S)-1-(2-(4-ethoxy-2-fluorophenyl)-3,4-dimethyl-2H-pyrazolo[3,4-d]pyridazin-7-yl)-N-((5-fluoropyridin-3-yl)methyl)pyrrolidin-3-amine] yielded a pKi [1] of at most 5.30 and a pKi [2] of at most 6.00.

For CCOc1ccc(-n2nc3c(N4CC[C@H](N(C)Cc5cccc(O)c5)C4)nnc(C)c3c2C)c(F)c1 [Example 15, (S)-3-(((1-(2-(4-Ethoxy-2-fluorophenyl)-3,4-dimethyl-2H-pyrazolo[3,4-d]pyridazin-7-yl)pyrrolidin-3-yl)(methyl)amino)methyl)phenol], the pKi [1] was over 6.30 and the pKi [2] was at most 6.00.

CCOc1ccc(-n2nc3c(N4CC[C@H](N(C)Cc5ccccc5)C4)nnc(C)c3c2C)c(F)c1 [Example 16, (S)-N-benzyl-1-(2-(4-ethoxy-2-fluorophenyl)-3,4-dimethyl-2H-pyrazolo[3,4-d]pyridazin-7-yl)-N-methylpyrrolidin-3-amine] showed a pKi [1] of over 6.30 and a pKi [2] of 6.00 to 6.30.

CCOc1ccc(-n2nc3c(N4CCC[C@H](N(C)C)C4)nnc(C)c3c2C)c(F)c1 [Example 17, (S)-1-(2-(4-ethoxy-2-fluorophenyl)-3,4-dimethyl-2H-pyrazolo[3,4-d]pyridazin-7-yl)-N,N-dimethylpiperidin-3-amine] showed a pKi [1] of 5.30 to 6.30 and a pKi [2] of at most 6.00.

In the case of CCOc1ccc(-n2nc3c(N4CC[C@H](NC(=O)Cc5ccccn5)C4)nnc(C)c3c2C)c(F)c1 [Example 18, (S)-N-(1-(2-(4-Ethoxy-2-fluorophenyl)-3,4-dimethyl-2H-pyrazolo[3,4-d]pyridazin-7-yl)pyrrolidin-3-yl)-2-(pyridin-2-yl)acetamide], the pKi [1] was over 6.30 and the pKi [2] was at most 6.00.

Work on CCOc1ccc(-n2nc3c(N4CC[C@H](NC(=O)Cc5cccnc5)C4)nnc(C)c3c2C)c(F)c1 [Example 19, (S)-N-(1-(2-(4-ethoxy-2-fluorophenyl)-3,4-dimethyl-2H-pyrazolo[3,4-d]pyridazin-7-yl)pyrrolidin-3-yl)-2-(pyridin-3-yl)acetamide] yielded a pKi [1] of over 6.30 and a pKi [2] of at most 6.00.

— patent US20200062767A1, “SUBSTITUTED PYRROLIDINYL AND PIPERIDINYL PYRAZOLOPYRIDAZINE DERIVATIVES HAVING MULTIMODAL ACTIVITY AGAINST PAIN” (ESTEVE PHARMACEUTICALS, S.A., priority 2017, published 2020)
